# According to US10221163B2 (priority 2015, dated 2019):
# Read-outs that look alike come from different tables or passages of the source.
# What was measured:
# [1] = target: VIM-1 (Pseudomonas aeruginosa (strain ATCC 15692 / DSM 22644 / CIP 104116 / JCM 14847 / LMG 12228 / 1C / PRS 101 / PAO1), UniProt A0A0F7KYQ8); assay: biochemical; conditions: CCF2-FA substrate, 30 pM enzyme, 2 hours at 25° C.
# Protocol: Enzyme Activity: Determination of IC50
# The Class B enzyme activities were measured in the presence of the test inhibitor in a fluorescence assay against a commercially available substrate consisting of a cephalosporin core linking 7-hydroxycoumarin to fluorescein (CCF2-FA). […] In a 384-well microplate, the test inhibitor was incubated with the metallo-β-lactamase enzyme and the substrate for 2 hours at 25° C. […] The IC50 value was determined from semi-logarithmic plots of enzyme inhibition versus inhibitor concentration, with a curve generated using a 4-parameter fit.
# [2] = target: IMP-1 (Serratia marcescens, UniProt P52699); assay: biochemical; assay type: biochemical; conditions: CCF2-FA substrate, 2 pM enzyme, 2 hours at 25° C.
# Outline: (§1)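 Fluorescence assay of metallo-β-lactamase activity using CCF2-FA, a cephalosporin-linked 7-hydroxycoumarin–fluorescein substrate. Inhibitor, enzyme and substrate were incubated together for 2 hours at 25° C. IC50 came from a 4-parameter fit of inhibition versus inhibitor concentration.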
# [3] = target: NDM-1 (Klebsiella pneumoniae, UniProt C7C422); assay: biochemical; assay type: biochemical; conditions: fluorescence assay, CCF2-FA substrate, 1 pM enzyme, 2 hours at 25° C.; read-out: NDM-1 IC50
# Outline: as §1
# [4] = system: Klebsiella pneumoniae expressing VIM-1 (IHMA599644); assay type: cell-based; conditions: for Klebsiella pneumoniae expressing VIM-1 (IHMA599644) MITC95: with imipenem 1 μg/ml, 95% inhibition of bacterial growth; for Klebsiella pneumoniae MITC95: VIM-1 strain IHMA599644, with imipenem 1 μg/ml, 95% inhibition of growth
# Outline: (§2)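 Clinical strains grown overnight on blood agar at 35°C, colonies suspended in saline, diluted 1:100 into 1.1×CAMHB. Test compound titrated with imipenem at 1 μg/ml; incubated 22–24 h at 35°C, growth read by absorbance.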
# [5] = system: Escherichia coli expressing NDM-1 (CLB30005, CLB30016); assay type: cell-based; conditions: with imipenem 1 μg/ml; for Escherichia coli expressing NDM-1 (CLB30016) MITC95: 95% inhibition of bacterial growth; for Escherichia coli MITC95: NDM-1 strain, 95% inhibition of growth
# Outline: as §2
# [6] = system: Serratia marcescens expressing IMP-1 (CL5741); assay type: cell-based; conditions: for Serratia marcescens expressing IMP-1 (CL5741) MITC95: with imipenem 1 μg/ml, 95% inhibition of bacterial growth; for Serratia marcescens MITC95: IMP-1 strain CL5741, with imipenem 1 μg/ml, 95% inhibition of growth
# Outline: as §2
# [7] = system: Pseudomonas aeruginosa efflux+ (MB9798), IMP-1; assay type: cell-based; set-up: Concentration of metallo-β-lactamase inhibitor which restores susceptibility of efflux + (MB9798) strain to imipenem: unit not given here; conditions: C, D serine β-lactamase inhibitor closely related to relebactam; for P. aeruginosa expressing IMP-1, efflux + (MB9798) MITC95: concentration restoring susceptibility to imipenem at 2 μg/mL in the presence of a class A; for Concentration of metallo-β-lactamase inhibitor which restores susceptibility of efflux + (MB9798) strain to imipenem: imipenem at 2 μg/mL, in the presence of a class A
# Outline: (§3)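 P. aeruginosa PAO1-derived IMP-1 strains, efflux+ MB9798 and efflux− MB9799, tested by standard microbroth MIC with imipenem and/or ceftazidime fixed, usually at CLSI breakpoint, plus fixed class A/C β-lactamase inhibitor against AmpC. Inhibitor titrated; concentration restoring susceptibility recorded; MB9798/MB9799 fold difference indicates efflux.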
# [8] = system: Pseudomonas aeruginosa efflux− (MB9799), IMP-1; assay type: cell-based; conditions: C, D serine β-lactamase inhibitor closely related to relebactam; for P. aeruginosa expressing IMP-1, efflux − (MB9799) MITC95: concentration restoring susceptibility to imipenem at 2 μg/mL in the presence of a class A; for Concentration of metallo-β-lactamase inhibitor which restores susceptibility of efflux − (MB9799) strain to imipenem: imipenem at 2 μg/mL, in the presence of a class A
# Outline: as §3
# [9] = fluorescence assay, read-out: VIM-1 IC50
# [10] = fluorescence assay, read-out: IMP-1 IC50
# Sequence of NDM-1 (C7C422 whole entry, looked up, species assumed): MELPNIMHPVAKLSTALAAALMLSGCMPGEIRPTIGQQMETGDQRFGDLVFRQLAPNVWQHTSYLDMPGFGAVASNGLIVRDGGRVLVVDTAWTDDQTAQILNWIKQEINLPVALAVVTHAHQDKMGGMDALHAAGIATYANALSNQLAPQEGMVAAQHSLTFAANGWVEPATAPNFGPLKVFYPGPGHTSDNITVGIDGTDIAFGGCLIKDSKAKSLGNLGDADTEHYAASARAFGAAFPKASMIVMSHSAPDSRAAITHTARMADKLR
# Sequence of IMP-1 (P52699 whole entry, looked up, species assumed): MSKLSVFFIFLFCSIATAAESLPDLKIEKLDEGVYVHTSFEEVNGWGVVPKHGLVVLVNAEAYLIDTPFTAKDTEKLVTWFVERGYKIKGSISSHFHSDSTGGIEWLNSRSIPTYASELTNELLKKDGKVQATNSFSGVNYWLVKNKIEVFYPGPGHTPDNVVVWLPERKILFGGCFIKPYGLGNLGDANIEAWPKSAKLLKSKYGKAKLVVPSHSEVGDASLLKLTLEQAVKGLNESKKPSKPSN
Structure (SMILES),"IC50 ([1]; VIM-1 IC50, fluorescence assay) [nM]","IC50 ([2]; IMP-1 IC50, fluorescence assay) [nM]",IC50 [3] [nM],Klebsiella pneumoniae expressing VIM-1 (IHMA599644) MITC95 [4] [µM],Escherichia coli expressing NDM-1 (CLB30016) MITC95 [5] [µM],Serratia marcescens expressing IMP-1 (CL5741) MITC95 [6] [µM],"IC50 [1, 9] [nM]","P. aeruginosa expressing IMP-1, efflux + (MB9798) MITC95 [7] [µM]","P. aeruginosa expressing IMP-1, efflux − (MB9799) MITC95 [8] [µM]","IC50 [2, 10] [nM]",Klebsiella pneumoniae MITC95 [4] [µM],Escherichia coli MITC95 [5] [µM],Serratia marcescens MITC95 [6] [µM],Concentration of metallo-β-lactamase inhibitor which restores susceptibility of efflux + (MB9798) strain to imipenem [7],Concentration of metallo-β-lactamase inhibitor which restores susceptibility of efflux − (MB9799) strain to imipenem [8]
"C[C@H](CN)NS(=O)(=O)c1ccc(-c2cccc3sc(N)nc23)c(-c2nnn[nH]2)c1S(N)(=O)=O [Example 72, (R)-4-(2-aminobenzo[d]thiazol-4-yl)-N^1-(1-aminopropan-2-yl)-3-(1H-tetrazol-5-yl)benzene-1,2-disulfonamide]",0.26,0.27,0.02,3.125,1.563,1.563,–,–,–,–,–,–,–,–,–
"Nc1nc2c(-c3ccc(S(=O)(=O)N4CC5C(N)C5C4)c(S(N)(=O)=O)c3-c3nnn[nH]3)cccc2s1.O=C(O)C(F)(F)F [Example 113, (1R,5S,6s)-3-((4-(2-aminobenzo[d]thiazol-4-yl)-2-sulfamoyl-3-(1H-tetrazol-5-yl)phenyl)sulfonyl)-3-azabicyclo[3.1.0]hexan-6-aminium 2,2,2-trifluoroacetate]",–,–,0.646,3.125,1.563,3.125,0.773,1.563,1.563,–,–,–,–,–,–
"CC(C)(CN)NS(=O)(=O)c1ccc(-c2cccc3sc(N)nc23)c(-c2nnn[nH]2)c1S(N)(=O)=O.O=CO [Example 117, 2-(4-(2-aminobenzo[d]thiazol-4-yl)-2-sulfamoyl-3-(1H-tetrazol-5-yl)phenylsulfonamido)-2-methylpropan-1-aminium formate]",–,–,0.0126,3.125,6.25,3.125,0.183,1.563,1.563,–,–,–,–,–,–
"Nc1nc2c(-c3ccc(S(=O)(=O)NCC(N)C(F)F)c(S(N)(=O)=O)c3-c3nnn[nH]3)cccc2s1.O=CO (stereo not drawn) [Example 118, 3-(4-(2-aminobenzo[d]thiazol-4-yl)-2-sulfamoyl-3-(1H-tetrazol-5-yl)phenylsulfonamido)-1,1-difluoropropan-2-aminium formate]",0.289,–,0.026,12.5,25,6.25,–,12.5,3.125,–,–,–,–,–,–
"Nc1nc2c(-c3ccc(S(=O)(=O)NC4C[C@@H]5CN[C@H]4C5)c(S(N)(=O)=O)c3-c3nnn[nH]3)cccc2s1.O=CO (stereo partly drawn) [Example 119, 4-(2-aminobenzo[d[thiazol-4-yl)-N1-((1S,4R)-2-azabicyclo[2.2.1]heptan-6-yl)-3-(1H-tetrazol-5-yl)benzene-1,2-disulfonamide, formate salt]",–,–,0.0407,–,–,–,0.254,–,–,0.223,–,–,–,–,–
"Nc1nc2c(-c3ccc(S(=O)(=O)NC[C@@H]4CCCN4)c(S(N)(=O)=O)c3-c3nnn[nH]3)cccc2s1.O=CO [Example 125, (S)-2-((4-(2-aminobenzo[d]thiazol-4-yl)-2-sulfamoyl-3-(1H-tetrazol-5-yl)phenylsulfonamido)methyl)pyrrolidin-1-ium formate]",–,–,0.0465,3.125,1.563,1.563,0.196,0.7813,1.563,–,–,–,–,–,–
"Nc1nc2c(-c3ccc(S(=O)(=O)NC[C@H]4CCCN4)c(S(N)(=O)=O)c3-c3nnn[nH]3)cccc2s1.O=CO [Example 126, (R)-2-((4-(2-aminobenzo[d]thiazol-4-yl)-2-sulfamoyl-3-(1H-tetrazol-5-yl)phenylsulfonamido)methyl)pyrrolidin-1-ium formate]",–,–,0.0569,3.125,1.563,1.563,0.18,0.7813,1.563,–,–,–,–,–,–
"NC[C@H]1CCN(S(=O)(=O)c2ccc(-c3cccc4[nH]c(N)nc34)c(-c3nn[nH]n3)c2S(N)(=O)=O)C1 [Example 253, (R)-3-(2-amino-1H-benzo[d]imidazol-4-yl)-6-((3-(aminomethyl)pyrrolidin-1-yl)sulfonyl)-2-(2H-tetrazol-5-yl)benzenesulfonamide]",–,–,0.884,–,–,–,1.53,1.563,0.7813,2.68,1.563,1.563,0.7813,–,–
"NCc1nc2c(-c3ccc(S(=O)(=O)NC[C@@H]4CNCCN4)c(S(N)(=O)=O)c3-c3nn[nH]n3)cccc2[nH]1 [Example 311, (S)-4-(2-(aminomethyl)-1H-benzo[d]imidazol-4-yl)-N-(piperazin-2-ylmethyl)-3-(2H-tetrazol-5-yl)benzene-1,2-disulfonamide]",–,–,0.0986,–,–,–,0.11,1.563,1.563,–,3.125,1.563,1.563,–,–
NCCNS(=O)(=O)c1ccc(-c2cccc(C(=O)N[C@@H]3CNC[C@H]3O)c2)c(-c2nn[nH]n2)c1S(N)(=O)=O [Example 344],–,–,1.39,–,–,–,0.52,1.563,0.7813,4.26,1.563,0.7813,1.563,–,–
"Nc1nc2c(-c3ccc(S(=O)(=O)N[C@@H]4C[C@H]4N)c(S(N)(=O)=O)c3-c3nn[nH]n3)cccc2s1 [Example 388, 4-(2-amino-1,3-benzothiazol-4-yl)-N^1-[(1R,2R)-2-aminocyclopropyl]-3-(2H-tetrazol-5-yl)benzene-1,2-disulfonamide]",0.375,–,0.0884,–,–,–,–,1.563,3.125,–,6.25,3.125,3.125,–,–
Nc1ccc(-c2ccc(S(=O)(=O)N[C@H]3CNC[C@H]3N)c(S(N)(=O)=O)c2-c2nn[nH]n2)cn1 [Example 413],–,–,0.248,–,–,–,0.3,–,–,0.8,3.125,0.7813,1.563,1.563,1.563
Nc1ccc(-c2ccc(S(=O)(=O)N[C@@H]3CNC[C@@H]3N)c(S(N)(=O)=O)c2-c2nn[nH]n2)cn1 [Example 414],–,–,0.329,–,–,–,0.347,–,–,0.786,3.125,0.3906,0.7813,1.563,1.563
